Experimental data published in US20020051978A1, “Methods and compositions for the identification, assessment, prevention and therapy of human cancers” (priority 2000, published 2002).
Like-named read-outs stand apart in the source and are kept apart here.

Key:
[1] = tested on: 60 cancer cell lines (NCI 60 cancer cell line series); assay: NCI-DTP in vitro cancer screen, sulforhodamine B (SRB) growth inhibition, 48 hour exposure; assay type: cell-based, human; design: key to sensitivity class Ovarian OVCAR-8 CL6005 / sensitivity class Ovarian SK-OV-3 CL6011 / sensitivity class Prostate DU-145 CL11003 / sensitivity class NSCLC NCI-H522 CL1003 / sensitivity class Ovarian IGROV1 CL6010 / sensitivity class Ovarian OVCAR-4 CL6002 / sensitivity class Prostate PC-3(I) CL11001 / sensitivity class Renal A498 CL9013 / sensitivity class Renal SN12C CL9008: sensitivity class: 1 = Low, 2 = Medium, 3 = High
Outline: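 Sixty NCI-DTP cancer lines plated at line-specific densities, dosed on day 1 in duplicate with 5 concentrations at ten-fold intervals. After 48 h exposure, cell mass read by SRB staining; GI50 (50% growth inhibition) taken from dose-response curves and expressed as -log GI50.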

[2] = tested on: 60 cancer cell lines (NCI 60 cancer cell line series); details: cited from earlier work

NC(=O)NO [Hydroxyurea]
classification of cell line as Low(1), Medium(2) or High(3) sensitivity to compound ([1]; Breast BT-549 (CL5013)): 1
classification of cell line as Low(1), Medium(2) or High(3) sensitivity to compound ([1]; Breast HS-578T CL5006): 2
classification of cell line as Low(1), Medium(2) or High(3) sensitivity to compound ([1]; Breast MCF7(I) (CL5001)): 2
classification of cell line as Low(1), Medium(2) or High(3) sensitivity to compound ([1]; Breast MCF7/ADRr (CL5002)): 2
classification of cell line as Low(1), Medium(2) or High(3) sensitivity to compound ([1]; Breast MDA-MB-231 CL5005): 1
classification of cell line as Low(1), Medium(2) or High(3) sensitivity to compound ([1]; Breast MDA-MB-435 (CL5011)): 1
classification of cell line as Low(1), Medium(2) or High(3) sensitivity to compound ([1]; Breast MDA-N CL5012): 1
classification of cell line as Low(1), Medium(2) or High(3) sensitivity to compound ([1]; Breast T-47D (CL5014)): 1
classification of cell line as Low(1), Medium(2) or High(3) sensitivity to compound ([1]; CNS SF-268 CL12014): 2
classification of cell line as Low(1), Medium(2) or High(3) sensitivity to compound ([1]; CNS SF-295 CL12015): 3
classification of cell line as Low(1), Medium(2) or High(3) sensitivity to compound ([1]; CNS SF-539 CL12016): 3
classification of cell line as Low(1), Medium(2) or High(3) sensitivity to compound ([1]; CNS SNB-19 (CL12002)): 1
classification of cell line as Low(1), Medium(2) or High(3) sensitivity to compound ([1]; CNS SNB-75(I) CL12005): 2
classification of cell line as Low(1), Medium(2) or High(3) sensitivity to compound ([1]; CNS U251(I) CL12009): 2
classification of cell line as Low(1), Medium(2) or High(3) sensitivity to compound ([1]; Colon COLO-250 CL4010): 1
classification of cell line as Low(1), Medium(2) or High(3) sensitivity to compound ([1]; Colon HCC-2998 (CL4002)): 2
classification of cell line as Low(1), Medium(2) or High(3) sensitivity to compound ([1]; Colon HCT-15 CL4015): 2
classification of cell line as Low(1), Medium(2) or High(3) sensitivity to compound ([1]; Colon HCT-116 (CL4003)): 2
classification of cell line as Low(1), Medium(2) or High(3) sensitivity to compound ([1]; Colon HT29(I) CL4001): 2
classification of cell line as Low(1), Medium(2) or High(3) sensitivity to compound ([1]; Colon KM12 (CL4017)): 2
classification of cell line as Low(1), Medium(2) or High(3) sensitivity to compound ([1]; Colon SW-620 (CL4009)): 2
classification of cell line as Low(1), Medium(2) or High(3) sensitivity to compound ([1]; Leukemia CCRF-CEM(I) (CL7003)): 3
classification of cell line as Low(1), Medium(2) or High(3) sensitivity to compound ([1]; Leukemia HL-60(I) (CL7008)): 3
classification of cell line as Low(1), Medium(2) or High(3) sensitivity to compound ([1]; Leukemia K562(I) CL7005): 2
classification of cell line as Low(1), Medium(2) or High(3) sensitivity to compound ([1]; Leukemia MOLT-4 (CL7006)): 3
classification of cell line as Low(1), Medium(2) or High(3) sensitivity to compound ([1]; Leukemia RPMI-8226(I) (CL7010)): 3
classification of cell line as Low(1), Medium(2) or High(3) sensitivity to compound ([1]; Leukemia SR CL7019): 3
classification of cell line as Low(1), Medium(2) or High(3) sensitivity to compound ([1]; Melanoma LOX IMVI CL10001): 2
classification of cell line as Low(1), Medium(2) or High(3) sensitivity to compound ([1]; Melanoma M14 (CL10014)): 2
classification of cell line as Low(1), Medium(2) or High(3) sensitivity to compound ([1]; Melanoma MALME-3M CL10002): 2
classification of cell line as Low(1), Medium(2) or High(3) sensitivity to compound ([1]; Melanoma SK-MEL-2 (CL10005)): 1
classification of cell line as Low(1), Medium(2) or High(3) sensitivity to compound ([1]; Melanoma SK-MEL-5 (CL10007)): 2
classification of cell line as Low(1), Medium(2) or High(3) sensitivity to compound ([1]; Melanoma SK-MEL-28 (CL10008)): 1
classification of cell line as Low(1), Medium(2) or High(3) sensitivity to compound ([1]; Melanoma UACC-62 (CL10020)): 3
classification of cell line as Low(1), Medium(2) or High(3) sensitivity to compound ([1]; Melanoma UACC-257 (CL10021)): 1
classification of cell line as Low(1), Medium(2) or High(3) sensitivity to compound ([1]; NSCLC A549/ATCC (CL1004)): 2
classification of cell line as Low(1), Medium(2) or High(3) sensitivity to compound ([1]; NSCLC EKVX (CL1008)): 1
classification of cell line as Low(1), Medium(2) or High(3) sensitivity to compound ([1]; NSCLC HOP-62 (CL1026)): 2
classification of cell line as Low(1), Medium(2) or High(3) sensitivity to compound ([1]; NSCLC HOP-92 (CL1029)): 2
classification of cell line as Low(1), Medium(2) or High(3) sensitivity to compound ([1]; NSCLC NCI-H226 CL1013): 2
sensitivity class NSCLC NCI-H23(I) CL1001 ([1]; cell line NSCLC NCI-H23(I), CL1001): 2
sensitivity class NSCLC NCI-H332M CL1017 ([1]; cell line NSCLC NCI-H332M, CL1017): 1
sensitivity class NSCLC NCI-H460 CL1021 ([1]; cell line NSCLC NCI-H460, CL1021): 3
sensitivity class NSCLC NCI-H522 CL1003 ([1]; cell line NSCLC NCI-H522, CL1003): 2
sensitivity class Ovarian IGROV1 CL6010 ([1]; cell line Ovarian IGROV1, CL6010): 2
sensitivity class Ovarian OVCAR-3 CL6001 ([1]; cell line Ovarian OVCAR-3, CL6001): 2
sensitivity class Ovarian OVCAR-4 CL6002 ([1]; cell line Ovarian OVCAR-4, CL6002): 1
sensitivity class Ovarian OVCAR-5 CL6003 ([1]; cell line Ovarian OVCAR-5, CL6003): 2
sensitivity class Ovarian OVCAR-8 CL6005 ([1]; cell line Ovarian OVCAR-8, CL6005): 2
sensitivity class Ovarian SK-OV-3 CL6011 ([1]; cell line Ovarian SK-OV-3, CL6011): 1
sensitivity class Prostate DU-145 CL11003 ([1]; cell line Prostate DU-145, CL11003): 2
sensitivity class Prostate PC-3(I) CL11001 ([1]; cell line Prostate PC-3(I), CL11001): 2
sensitivity class Renal 786-O CL9018 ([1]; cell line Renal 786-O, CL9018): 2
sensitivity class Renal A498 CL9013 ([1]; cell line Renal A498, CL9013): 2
sensitivity class Renal ACHN CL9023 ([1]; cell line Renal ACHN, CL9023): 3
sensitivity class Renal CAKI-1 CL9015 ([1]; cell line Renal CAKI-1, CL9015): 3
sensitivity class Renal RXF-393 CL9016 ([1]; cell line Renal RXF-393, CL9016): 2
sensitivity class Renal SN12C CL9008 ([1]; cell line Renal SN12C, CL9008): 2
sensitivity class Renal TK10 CL9024 ([1]; cell line Renal TK10, CL9024): 1
sensitivity class Renal UO-31 CL9004 ([1]; cell line Renal UO-31, CL9004): 2
-Log (GI50) ([2]; Breast BT-549 (CL5013)): 2.8
-Log (GI50) ([2]; Breast HS-578T CL5006): 3.1
-Log (GI50) ([2]; Breast MCF7(I) (CL5001)): 3.5
-Log (GI50) ([2]; Breast MCF7/ADRr (CL5002)): 3.5
-Log (GI50) ([2]; Breast MDA-MB-231 CL5005): 2.6
-Log (GI50) ([2]; Breast MDA-MB-435 (CL5011)): 2.7
-Log (GI50) ([2]; Breast MDA-N CL5012): 2.7
-Log (GI50) ([2]; Breast T-47D (CL5014)): 2.8
-Log (GI50) ([2]; CNS SF-268 CL12014): 3.3
-Log (GI50) ([2]; CNS SF-295 CL12015): 3.5
-Log (GI50) ([2]; CNS SF-539 CL12016): 3.5
-Log (GI50) ([2]; CNS SNB-19 (CL12002)): 2.8
-Log (GI50) ([2]; CNS SNB-75(I) CL12005): 3.1
-Log (GI50) ([2]; CNS U251(I) CL12009): 3.3
-Log (GI50) ([2]; Colon COLO-250 CL4010): 2.8
-Log (GI50) ([2]; Colon HCC-2998 (CL4002)): 3.1
-Log (GI50) ([2]; Colon HCT-15 CL4015): 3.1
-Log (GI50) ([2]; Colon HCT-116 (CL4003)): 3.0
-Log (GI50) ([2]; Colon HT29(I) CL4001): 3.3
-Log (GI50) ([2]; Colon KM12 (CL4017)): 3.1
-Log (GI50) ([2]; Colon SW-620 (CL4009)): 3.0
-Log (GI50) ([2]; Leukemia CCRF-CEM(I) (CL7003)): 4.3
-Log (GI50) ([2]; Leukemia HL-60(I) (CL7008)): 4.7
-Log (GI50) ([2]; Leukemia K562(I) CL7005): 3.0
-Log (GI50) ([2]; Leukemia MOLT-4 (CL7006)): 3.8
-Log (GI50) ([2]; Leukemia RPMI-8226(I) (CL7010)): 3.6
-Log (GI50) ([2]; Leukemia SR CL7019): 3.7
-Log (GI50) ([2]; Melanoma LOX IMVI CL10001): 3.2
-Log (GI50) ([2]; Melanoma M14 (CL10014)): 3.2
-Log (GI50) ([2]; Melanoma MALME-3M CL10002): 2.9
-Log (GI50) ([2]; Melanoma SK-MEL-2 (CL10005)): 2.8
-Log (GI50) ([2]; Melanoma SK-MEL-5 (CL10007)): 3.2
-Log (GI50) ([2]; Melanoma SK-MEL-28 (CL10008)): 2.7
-Log (GI50) ([2]; Melanoma UACC-62 (CL10020)): 3.6
-Log (GI50) ([2]; Melanoma UACC-257 (CL10021)): 2.8
-Log (GI50) ([2]; NCSLC NCI-H522 CL1003): 3.1
-Log (GI50) ([2]; NSCLC A549/ATCC (CL1004)): 3.3
-Log (GI50) ([2]; NSCLC EKVX (CL1008)): 2.8
-Log (GI50) ([2]; NSCLC HOP-62 (CL1026)): 3.0
-Log (GI50) ([2]; NSCLC HOP-92 (CL1029)): 3.1
-Log (GI50) ([2]; NSCLC NCI-H23(I) CL1001): 3.1
-Log (GI50) ([2]; NSCLC NCI-H226 CL1013): 3.1
-Log (GI50) ([2]; NSCLC NCI-H332M CL1017): 2.8
-Log (GI50) ([2]; NSCLC NCI-H460 CL1021): 3.5
-Log (GI50) ([2]; Ovarian IGROV1 CL6010): 3.0
-Log (GI50) ([2]; Ovarian OVCAR-3 CL6001): 3.0
-Log (GI50) ([2]; Ovarian OVCAR-4 CL6002): 2.8
-Log (GI50) ([2]; Ovarian OVCAR-5 CL6003): 3.2
-Log (GI50) ([2]; Ovarian OVCAR-8 CL6005): 3.3
-Log (GI50) ([2]; Ovarian SK-OV-3 CL6011): 2.8
-Log (GI50) ([2]; Prostate DU-145 CL11003): 3.1
-Log (GI50) ([2]; Prostate PC-3(I) CL11001): 3.0
-Log (GI50) ([2]; Renal 786-O CL9018): 3.5
-Log (GI50) ([2]; Renal A498 CL9013): 3.2
-Log (GI50) ([2]; Renal ACHN CL9023): 4.0
-Log (GI50) ([2]; Renal CAKI-1 CL9015): 3.6
-Log (GI50) ([2]; Renal RXF-393 CL9016): 3.2
-Log (GI50) ([2]; Renal SN12C CL9008): 3.1
-Log (GI50) ([2]; Renal TK10 CL9024): 2.7
-Log (GI50) ([2]; Renal UO-31 CL9004): 3.3
